Measurements published in patent publication US12559509B1, “Citrate coordination complex of an orally-delivered beta-lactamase inhibitor and uses thereof” (priority 2023, dated 2026).
Structures can show the parent of a compound that is named as a salt. Each block holds one compound with its values, some of them ahead of it.

Columns and labels:
[1] = Dissolution testing (Apparatus II method) of capsule prototypes; format: physicochemical; details: FDC capsule with ceftibuten dihydrate, 900 mL pH 6.8 50 mM sodium bicarbonate buffer, 75 RPM paddle
Procedure: In some embodiments, the citrate coordination complex allows for the development of a dry powder, immediate release formulation as compared to other forms, such as the ethanolate, which could not be formulated directly as an immediate release formulation. […] Dissolution testing (Apparatus II method) was performed using 900 mL of pH 6.8 50 mM sodium bicarbonate buffer solution and a 75 RPM paddle speed.

[2] = Dynamic Vapor Sorption (DVS) analysis; format: physicochemical; details: for solid form after DVS cycle, by XRPD: 0% RH to 98% RH and back to 0% RH; for weight gain: above 85% RH (up to 98% RH); for weight gain with increasing RH: between 0% RH and 85% RH
Procedure: Moisture sorption/desorption data were collected on a DVS-intrinsic vapor sorption analyzer (Surface Measurement Systems NA, Allentown, PA, USA) and operated with DVS-intrinsic control software (Version 1.0.5.1). Samples were not dried prior to analysis. Sorption and desorption data were collected over a range from 5% to 98% relative humidity (RH) via 10% RH increments under a nitrogen purge. The equilibrium criterion used for analysis was less than 0.005% weight change in 10 min with a maximum equilibration time of 3 h.
The DVS isotherm of Form B is qualitatively similar to that of Form A. Form B lost 0.1 wt % upon equilibration at ˜0% RH.

[3] = Chemical stability of drug substance controls and binary blend, HPLC purity; format: physicochemical; details: for degradation (in words): controls and binary blend, 25° C. and 40° C., through 12 weeks
[4] = Excipient compatibility at 50° C., HPLC purity; format: physicochemical; details: for chemical stability in the presence of the excipients (in words): accelerated data
Procedure: The compatibility of the drug substances with select functional excipients was confirmed by comparing the assay and purity of samples stored at 50° C. for 5 weeks to the drug substance control samples. The excipients tested included: microcrystalline cellulose (binder); magnesium stearate (lubricant); sodium starch glycolate (disintegrant); and colloidal silica (glidant). […] The samples were transferred to a 3-dram glass vial with a tight-fitting cap and placed in a 50° C. oven.

[5] = monkeys, reported; cited from earlier work
[6] = drug substance control, 25° C. Storage, 0 weeks
[7] = drug substance control, 25° C. Storage, 5 weeks
[8] = drug substance control, 25° C. Storage, 8 weeks
[9] = drug substance control, 25° C. Storage, 12 weeks
[10] = drug substance control, 40° C. Storage, 0 weeks
[11] = drug substance control, 40° C. Storage, 5 weeks
[12] = drug substance control, 40° C. Storage, 8 weeks
[13] = drug substance control, 40° C. Storage, 12 weeks
[14] = in binary Blend, 25° C. Storage, 0 weeks
[15] = in binary Blend, 25° C. Storage, 5 weeks
[16] = in binary Blend, 25° C. Storage, 8 weeks
[17] = in binary Blend, 25° C. Storage, 12 weeks
[18] = in binary Blend, 40° C. Storage, 0 weeks
[19] = in binary Blend, 40° C. Storage, 8 weeks
[20] = in binary Blend, 40° C. Storage, 12 weeks

release of the drug substance ([1]; at 60 minutes): < 40%
SMILES: CCOB1Oc2c(cccc2C(=O)OCOC(=O)C(CC)CC)C[C@@H]1NC(=O)CC [Compound 1 Ethanolate, ((2-ethylbutanoyl)oxy)methyl (R)-2-ethoxy-3-propionamido-3,4-dihydro-2H-benzo[e][1,2]oxaborinine-8-carboxylate]

solid form after DVS cycle, by XRPD [2]: remained crystalline, as Form A
hygroscopicity (in words) ([2]; 0-85% RH): non-hygroscopic
Change In Mass (%)-ref, Desorption ([2]; Target RH 0.0 %): −0.023%
Change In Mass (%)-ref, Sorption ([2]; Target RH 0.0 %): 0.000%
Change In Mass (%)-ref, Desorption ([2]; Target RH 5.0 %): 0.012%
Change In Mass (%)-ref, Hysteresis ([2]; Target RH 5.0 %): −0.006%
Change In Mass (%)-ref, Sorption ([2]; Target RH 5.0 %): 0.019%
Change In Mass (%)-ref, Desorption ([2]; Target RH 15.0 %): 0.065%
Change In Mass (%)-ref, Hysteresis ([2]; Target RH 15.0 %): −0.008%
Change In Mass (%)-ref, Sorption ([2]; Target RH 15.0 %): 0.073%
Change In Mass (%)-ref, Desorption ([2]; Target RH 25.0 %): 0.119%
Change In Mass (%)-ref, Hysteresis ([2]; Target RH 25.0 %): −0.003%
Change In Mass (%)-ref, Sorption ([2]; Target RH 25.0 %): 0.121%
Change In Mass (%)-ref, Desorption ([2]; Target RH 35.0 %): 0.167%
Change In Mass (%)-ref, Hysteresis ([2]; Target RH 35.0 %): 0.008%
Change In Mass (%)-ref, Sorption ([2]; Target RH 35.0 %): 0.159%
Change In Mass (%)-ref, Desorption ([2]; Target RH 45.0 %): 0.218%
Change In Mass (%)-ref, Hysteresis ([2]; Target RH 45.0 %): 0.013%
Change In Mass (%)-ref, Sorption ([2]; Target RH 45.0 %): 0.205%
Change In Mass (%)-ref, Desorption ([2]; Target RH 55.0 %): 0.279%
Change In Mass (%)-ref, Hysteresis ([2]; Target RH 55.0 %): 0.019%
Change In Mass (%)-ref, Sorption ([2]; Target RH 55.0 %): 0.259%
Change In Mass (%)-ref, Desorption ([2]; Target RH 65.0 %): 0.356%
Change In Mass (%)-ref, Hysteresis ([2]; Target RH 65.0 %): 0.038%
Change In Mass (%)-ref, Sorption ([2]; Target RH 65.0 %): 0.318%
Change In Mass (%)-ref, Desorption ([2]; Target RH 85.0 %): 0.604%
Change In Mass (%)-ref, Hysteresis ([2]; Target RH 85.0 %): 0.102%
Change In Mass (%)-ref, Sorption ([2]; Target RH 85.0 %): 0.502%
Change In Mass (%)-ref, Desorption ([2]; Target RH 95.0 %): 4.054%
Change In Mass (%)-ref, Hysteresis ([2]; Target RH 95.0 %): 0.764%
Change In Mass (%)-ref, Sorption ([2]; Target RH 95.0 %): 3.289%
Change In Mass (%)-ref, Desorption ([2]; Target RH 98.0 %): 4.006%
Change In Mass (%)-ref, Sorption ([2]; Target RH 98.0 %): 4.006%
Change In Mass (%)-ref, Desorption ([2]; Target RH […]): 0.457%
Change In Mass (%)-ref, Hysteresis ([2]; Target RH […]): 0.056%
Change In Mass (%)-ref, Sorption ([2]; Target RH […]): 0.401%
weight gain [2]: 4.0%
weight gain with increasing RH [2]: 0.5 wt %
SMILES: CCC(=O)N[C@@H](Cc1cccc(C(=O)OCOC(=O)C(CC)CC)c1O)B1OC(=O)C(CC(=O)O)(CC(=O)O)O1 [(R)-(2-(3-((((2-ethylbutanoyl)oxy)methoxy)carbonyl)-2-hydroxyphenyl)-1-propionamidoethyl)boronic acid citrate]

degradation (in words) [3]: temperature dependent degradation
HPLC purity (% peak area) [3, 6]: 98.6%
HPLC purity (% peak area) [3, 7]: 98.6%
HPLC purity (% peak area) [3, 8]: 98.6%
HPLC purity (% peak area) [3, 9]: 98.4%
HPLC purity (% peak area) [3, 10]: 98.6%
HPLC purity (% peak area) [3, 11]: 98.4%
HPLC purity (% peak area) [3, 12]: 96.7%
HPLC purity (% peak area) [3, 13]: 92.8%
HPLC purity (% peak area) [3, 14]: 98.4%
HPLC purity (% peak area) [3, 15]: 98.6%
HPLC purity (% peak area) [3, 16]: 98.3%
HPLC purity (% peak area) [3, 17]: 96.8%
HPLC purity (% peak area) [3, 18]: 97.5%
HPLC purity (% peak area) [3, 19]: 94.8%
HPLC purity (% peak area) [3, 20]: 93.7%
HPLC Purity (Peak Area %) Ceftibuten ([4]; 2 weeks): 99.2%
HPLC Purity (Peak Area %) Ceftibuten ([4]; 5 weeks): 94.8%
SMILES: Nc1nc(/C(=C/CC(=O)O)C(=O)N[C@@H]2C(=O)N3C(C(=O)O)=CCS[C@H]23)cs1 [Ceftibuten dihydrate, reference compound]

degradation (in words) [3]: no degradation
HPLC purity (% peak area) [3, 6]: 100.0%
HPLC purity (% peak area) [3, 7]: 100.0%
HPLC purity (% peak area) [3, 8]: 100.0%
HPLC purity (% peak area) [3, 9]: 100.0%
HPLC purity (% peak area) [3, 10]: 100.0%
HPLC purity (% peak area) [3, 11]: 100.0%
HPLC purity (% peak area) [3, 12]: 100.0%
HPLC purity (% peak area) [3, 13]: 100.0%
HPLC purity (% peak area) [3, 14]: 100.0%
HPLC purity (% peak area) [3, 15]: 100.0%
HPLC purity (% peak area) [3, 16]: 100.0%
HPLC purity (% peak area) [3, 17]: 100.0%
HPLC purity (% peak area) [3, 18]: 100.0%
HPLC purity (% peak area) ([3]; in binary Blend, 40° C. Storage, 5 weeks): 100.0%
HPLC purity (% peak area) [3, 19]: 100.0%
HPLC purity (% peak area) [3, 20]: 100.0%
HPLC Purity (Peak Area %) Compound 1 ([4]; 2 weeks): 100.0%
HPLC Purity (Peak Area %) Compound 1 ([4]; 5 weeks): 100.0%
release of the drug substance ([1]; by 10 minutes): 100%
SMILES: CCC(=O)N[C@@H](Cc1cccc(C(=O)OCOC(=O)C(CC)CC)c1O)B1OC(=O)C(CC(=O)O)(CC(=O)O)O1 [Compound 1 citrate coordination complex, (R)-2,2′-(2-(2-(3-((((2-ethylbutanoyl)oxy)methoxy)carbonyl)-2-hydroxyphenyl)-1-propionamidoethyl)-5-oxo-1,3,2-dioxaborolane-4,4-diyl)diacetic acid]
chemical stability in the presence of the excipients (in words) [4]: comparable to the stability for the drug substance controls

SMILES: Nc1nc(/C(=C/CC(=O)O)C(=O)N[C@@H]2C(=O)N3C(C(=O)O)=CCS[C@H]23)cs1 [Ceftibuten, reference compound]
chemical stability in the presence of the excipients (in words) [4]: comparable to the stability for the drug substance controls
bioavailability [5]: ~20%

Change In Mass (%)-ref, Desorption ([2]; Target RH 0.0 %): −0.17%
Change In Mass (%)-ref, Sorption ([2]; Target RH 0.0 %): −0.07%
Change In Mass (%)-ref, Desorption ([2]; Target RH 5.0 %): −0.13%
Change In Mass (%)-ref, Hysteresis ([2]; Target RH 5.0 %): −0.07%
Change In Mass (%)-ref, Sorption ([2]; Target RH 5.0 %): −0.05%
Change In Mass (%)-ref, Desorption ([2]; Target RH 15.0 %): −0.05%
Change In Mass (%)-ref, Hysteresis ([2]; Target RH 15.0 %): −0.08%
Change In Mass (%)-ref, Sorption ([2]; Target RH 15.0 %): 0.04%
Change In Mass (%)-ref, Desorption ([2]; Target RH 25.0 %): 0.06%
Change In Mass (%)-ref, Hysteresis ([2]; Target RH 25.0 %): −0.07%
Change In Mass (%)-ref, Sorption ([2]; Target RH 25.0 %): 0.13%
Change In Mass (%)-ref, Desorption ([2]; Target RH 35.0 %): 0.13%
Change In Mass (%)-ref, Hysteresis ([2]; Target RH 35.0 %): −0.04%
Change In Mass (%)-ref, Sorption ([2]; Target RH 35.0 %): 0.17%
Change In Mass (%)-ref, Desorption ([2]; Target RH 45.0 %): 0.25%
Change In Mass (%)-ref, Hysteresis ([2]; Target RH 45.0 %): −0.06%
Change In Mass (%)-ref, Sorption ([2]; Target RH 45.0 %): 0.31%
Change In Mass (%)-ref, Desorption ([2]; Target RH 55.0 %): 0.43%
Change In Mass (%)-ref, Hysteresis ([2]; Target RH 55.0 %): 0.02%
Change In Mass (%)-ref, Sorption ([2]; Target RH 55.0 %): 0.41%
Change In Mass (%)-ref, Desorption ([2]; Target RH 65.0 %): 0.56%
Change In Mass (%)-ref, Hysteresis ([2]; Target RH 65.0 %): 0.03%
Change In Mass (%)-ref, Sorption ([2]; Target RH 65.0 %): 0.53%
Change In Mass (%)-ref, Desorption ([2]; Target RH 85.0 %): 1.11%
Change In Mass (%)-ref, Hysteresis ([2]; Target RH 85.0 %): 0.13%
Change In Mass (%)-ref, Sorption ([2]; Target RH 85.0 %): 0.98%
Change In Mass (%)-ref, Desorption ([2]; Target RH 95.0 %): 11.32%
Change In Mass (%)-ref, Hysteresis ([2]; Target RH 95.0 %): 2.85%
Change In Mass (%)-ref, Sorption ([2]; Target RH 95.0 %): 8.47%
Change In Mass (%)-ref, Desorption ([2]; Target RH 98.0 %): 11.18%
Change In Mass (%)-ref, Sorption ([2]; Target RH 98.0 %): 11.18%
Change In Mass (%)-ref, Desorption ([2]; Target RH […]): 0.79%
Change In Mass (%)-ref, Hysteresis ([2]; Target RH […]): 0.12%
Change In Mass (%)-ref, Sorption ([2]; Target RH […]): 0.66%
weight gain [2]: 11.2%
weight lost upon equilibration ([2]; at ˜0% RH): 0.1 wt %
weight gain with increasing RH [2]: ~1.0 wt %
SMILES: CCC(=O)N[C@@H](Cc1cccc(C(=O)OCOC(=O)C(CC)CC)c1O)B(O)O.O=C(O)CC(O)(CC(=O)O)C(=O)O [(R)-(2-(3-((((2-ethylbutanoyl)oxy)methoxy)carbonyl)-2-hydroxyphenyl)-1-propionamidoethyl)boronic acid citrate]
solid form after DVS cycle, by XRPD [2]: XRPD of the sample matched that of the material before DVS analysis
